Measurements: patent US8618114B2 (priority 2008, dated 2013)
Counter-ions that a name gives are not always drawn.

biological target: T1, 5-HT6 receptor (Homo sapiens (Human), UniProt P50406); experiment: functional assay for serotonin 5-HT6 receptor inhibition (serotonin-induced intracellular cAMP, LANCE cAMP kit, HEK 293 cells); assay type: cell-based; conditions: HEK 293 cells with expressed 5-HT6 receptor; reduction of serotonin-induced intracellular cAMP
Procedure: Determination of antagonistic activity of compounds of the general formula 1 towards 5-HT6 receptors. Compounds of the general formula 1 were tested for their ability to prevent 5-HT6 receptors activation by serotonin. HEK 293 cells (cells of human embryo's kidney) with artificially expressed 5-HT6 receptor, activation of which by serotonin leads to increasing the concentration of intracellular cAMP, were used. The level of intracellular cAMP was determined using reagent kit LANCE cAMP (PerkinElmer) according to the method described by the manufacturer of the kit [http://las.perkinelmer.com/content/Manuals/MAN_LANCEcAMP384KitUser.pdf]. Effectiveness of the compounds was estimated by their ability to reduce the level of intracellular cAMP induced by serotonin. Table 4 presents IC50 values for the compounds of general formula 1 in the setting of functional assay for serotonin 5-HT6 receptor inhibition. The data given testify their moderate or high antagonistic activity.

T1 sequence (P50406 whole entry): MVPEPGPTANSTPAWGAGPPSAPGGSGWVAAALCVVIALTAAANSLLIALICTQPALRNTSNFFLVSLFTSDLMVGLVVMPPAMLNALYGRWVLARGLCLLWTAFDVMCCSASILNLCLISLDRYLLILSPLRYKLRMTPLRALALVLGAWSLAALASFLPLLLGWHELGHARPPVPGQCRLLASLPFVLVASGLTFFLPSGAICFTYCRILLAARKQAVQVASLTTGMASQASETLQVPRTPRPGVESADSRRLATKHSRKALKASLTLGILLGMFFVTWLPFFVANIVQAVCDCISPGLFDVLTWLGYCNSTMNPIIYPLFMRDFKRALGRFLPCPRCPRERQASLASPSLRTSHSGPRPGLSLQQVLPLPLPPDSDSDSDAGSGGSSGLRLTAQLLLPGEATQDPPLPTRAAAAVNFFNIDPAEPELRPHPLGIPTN

Row | IC50 | Compound
1 | 0.3 µM | CSc1nn2c(C)c(Cl)c(C)nc2c1S(=O)(=O)c1ccccc1 [1.1(4)]
2 | > 10 µM | CSc1nn2c(C)c(Oc3ccccc3)c(C)nc2c1S(=O)(=O)c1ccccc1 [1.1(6)]
3 | 0.514 µM | CSc1nn2c(C)c(Oc3cccnc3)c(C)nc2c1S(=O)(=O)c1ccccc1 [1.1(7)]
4 | 5.2 µM | CSc1nn2cccnc2c1S(=O)(=O)c1ccccc1 [1.1.1(1), 2-methylsulfanyl-3-phenylsulfonyl-pyrazolo[1,5-a]pyrimidine]
5 | 0.473 µM | CSc1nn2cccnc2c1S(=O)(=O)c1cccc(Cl)c1 [1.1.1(3)]
6 | 0.912 µM | CSc1nn2cccnc2c1S(=O)(=O)c1ccc(F)c(Cl)c1 [1.1.1(4)]
7 | 2.2 µM | CSc1nn2cccnc2c1S(=O)(=O)c1cccc(C)c1 [1.1.1(6)]
8 | 1.87 µM | CSc1nn2cccnc2c1S(=O)(=O)c1ccc(F)cc1 [1.1.1(7)]
9 | 0.45 µM | CSc1nn2ccc(C)nc2c1S(=O)(=O)c1ccccc1 [1.1.2(1), 5-methyl-2-methylsulfanyl-3-phenylsulfonyl-pyrazolo[1,5-a]pyrimidine]
10 | 0.996 µM | CSc1nn2ccc(C)nc2c1S(=O)(=O)c1ccc(F)cc1 [1.1.2(2), 5-methyl-2-methylsulfanyl-3-(4-fluorophenylsulfonyl)-pyrazolo[1,5-a]pyrimidine]
11 | 0.187 µM | CSc1nn2ccc(C)nc2c1S(=O)(=O)c1ccc(F)c(Cl)c1 [1.1.2(5), 5-methyl-2-methylsulfanyl-3-(4-fluoro-3-chlorophenylsulfonyl)-pyrazolo[1,5-a]pyrimidine]
12 | 1.11 µM | CSc1nn2c(C)ccnc2c1S(=O)(=O)c1ccccc1 [1.1.3(1), 7-methyl-2-methylsulfanyl-3-phenylsulfonyl-pyrazolo[1,5-a]pyrimidine]
13 | 0.156 µM | CSc1nn2c(C)ccnc2c1S(=O)(=O)c1ccc(F)c(Cl)c1 [1.1.3(5), 7-methyl-2-methylsulfanyl-3-(4-fluoro-3-chlorophenylsulfonyl)-pyrazolo[1,5-a]pyrimidine]
14 | 0.414 µM | COCc1cc(C)n2nc(SC)c(S(=O)(=O)c3ccccc3)c2n1 [1.1.5(1), 7-methyl-2-methylsulfanyl-5-(methoxymethyl)-3-phenylsulfonyl-pyrazolo[1,5-a]pyrimidine]
15 | 0.073 µM | CSc1nn2c(CO)cc(C)nc2c1S(=O)(=O)c1ccccc1 [1.1.6(1), 7-(hydroxymethyl)-5-methyl-2-methylsulfanyl-3-phenylsulfonyl-pyrazolo[1,5-a]pyrimidine]
16 | 30.1 µM | COc1cc(-c2ccccn2)nc2c(S(=O)(=O)c3ccccc3)c(SC)nn12 [1.1.8(2), 2-methylsulfanyl-7-methoxy-5-(pyridin-2-yl)-3-phenylsulfonyl-pyrazolo[1,5-a]pyrimidine]
17 | < 0.01 µM | COc1cc(-c2cccnc2)nc2c(S(=O)(=O)c3ccccc3)c(SC)nn12 [1.1.8(3), 2-methylsulfanyl-7-methoxy-5-(pyridin-3-yl)-3-phenylsulfonyl-pyrazolo[1,5-a]pyrimidine]
18 | 0.197 µM | CNc1nn2c(N3CCOCC3)cc(C)nc2c1S(=O)(=O)c1ccccc1 [1.1.12(5)]
19 | 0.052 µM | CNc1nn2c(C)c(Cl)c(C)nc2c1S(=O)(=O)c1ccccc1 [1.2(1)]
20 | 0.723 µM | CNc1nn2c(-c3ccccn3)cc(-c3ccccn3)nc2c1S(=O)(=O)c1ccccc1 [1.2(4)]
21 | 0.076 µM | CNc1nn2cccnc2c1S(=O)(=O)c1ccccc1 [1.2.1(1), 2-methylamino-3-phenylsulfonyl-pyrazolo[1,5-a]pyrimidine]
22 | 0.045 µM | CNc1nn2cccnc2c1S(=O)(=O)c1ccc(F)cc1 [1.2.1(2), 2-methylamino-3-(4-fluorophenylsulfonyl)-pyrazolo[1,5-a]pyrimidine]
23 | 0.024 µM | CNc1nn2cccnc2c1S(=O)(=O)c1cccc(Cl)c1 [1.2.1(4), 2-methylamino-3-(3-chlorophenylsulfonyl)-pyrazolo[1,5-a]pyrimidine]
24 | 0.016 µM | CNc1nn2ccc(C)nc2c1S(=O)(=O)c1ccccc1 [1.2.2(1), 5-methyl-2-methylamino-3-phenylsulfonyl-pyrazolo[1,5-a]pyrimidine]
25 | 0.003 µM | CNc1nn2c(C)ccnc2c1S(=O)(=O)c1ccccc1 [1.2.3(1), 7-methyl-2-methylamino-3-phenylsulfonyl-pyrazolo[1,5-a]pyrimidine]
26 | 0.101 µM | CNc1nn2c(COC)cc(C)nc2c1S(=O)(=O)c1ccccc1 [1.2.4(1), 5-methyl-2-methylamino-7-(methoxymethyl)-3-phenylsulfonyl-pyrazolo[1,5-a]pyrimidine]
27 | 0.004 µM | CNc1nn2c(C)cc(COC)nc2c1S(=O)(=O)c1ccccc1 [1.2.5(1), 7-methyl-2-methylamino-5-(methoxymethyl)-3-phenylsulfonyl-pyrazolo[1,5-a]pyrimidine]

Row | IC50 | Compound
28 | 0.004 µM | CNc1nn2c(CO)cc(C)nc2c1S(=O)(=O)c1ccccc1 [1.2.6(1), 7-(hydroxymethyl)-5-methyl-2-methylamino-3-phenylsulfonyl-pyrazolo[1,5-a]pyrimidine]
29 | 0.004 µM | CNc1nn2c(C)cc(-c3ccncc3)nc2c1S(=O)(=O)c1ccccc1 [1.2.8(8), 7-methyl-2-methylamino-5-(pyridin-4-yl)-3-phenylsulfonyl-pyrazolo[1,5-a]pyrimidine]
30 | 1.04 µM | CNc1nn2c(-c3cccnc3)ccnc2c1S(=O)(=O)c1ccccc1 [1.2.9(2), 2-methylamino-7-(pyridin-3-yl)-3-phenylsulfonyl-pyrazolo[1,5-a]pyrimidine]
31 | 0.341 µM | CNc1nn2c(-c3cccnc3)cc(C)nc2c1S(=O)(=O)c1ccccc1 [1.2.9(7), 5-methyl-2-methylamino-7-(pyridin-3-yl)-3-phenylsulfonyl-pyrazolo[1,5-a]pyrimidine]
32 | 0.009 µM | CNc1nn2c(NC)cc(C)nc2c1S(=O)(=O)c1ccccc1 [1.2.12(1), 2,7-di(methylamino)-5-methyl-3-phenylsulfonyl-pyrazolo[1,5-a]pyrimidine]
33 | 0.012 µM | CNc1nn2c(N(C)C)cc(C)nc2c1S(=O)(=O)c1ccccc1 [1.2.12(2), 7-dimethylamino-5-methyl-2-methylamino-3-phenylsulfonyl-pyrazolo[1,5-a]pyrimidine]
34 | 0.013 µM | CNc1nn2c(N(C)C)cc(-c3cccnc3)nc2c1S(=O)(=O)c1ccccc1 [1.2.12(9), 7-dimethylamino-2-methylamino-5-(pyridin-3-yl)-3-phenylsulfonyl-pyrazolo[1,5-a]pyrimidine]
35 | 0.172 µM | CNc1nn2c(N(C)CCN(C)C)cc(C)nc2c1S(=O)(=O)c1ccccc1 [1.2.12(11)]
36 | 1.86 µM | CNc1nn2c(N(C)CCN(C)C)cc(C)nc2c1S(=O)(=O)c1ccccc1 [1.2.12(12)]
37 | 0.078 µM | CNc1nn2c(C)c(CCCN)c(C)nc2c1S(=O)(=O)c1ccccc1 [1.2.22(4).HCl]
38 | 0.0252 µM | CNc1nn2c(C)c(CN)c(C)nc2c1S(=O)(=O)c1cccc(F)c1 [1.2.22(6).HCl]
39 | 0.026 µM | CNc1nn2c(C)c(CN(C)C)c(C)nc2c1S(=O)(=O)c1ccccc1 [1.2.22(10).HCl]
40 | 0.022 µM | CNc1nn2c(C)c(CN(C)C)c(C)nc2c1S(=O)(=O)c1cccc(Cl)c1 [1.2.22(11).HCl]
41 | 0.0564 µM | CNc1nn2c(C)c(CCN(C)C)c(C)nc2c1S(=O)(=O)c1ccccc1 [1.2.22(14).HCl]
42 | 0.006 µM | CNc1nn2c(C)c(N(C)C)c(C)nc2c1S(=O)(=O)c1ccccc1 [1.2.22(24).HCl]
43 | 0.037 µM | CNc1nn2c(C)cc(CN)nc2c1S(=O)(=O)c1ccc(F)cc1 [1.2.23(2).HCl]
44 | 0.06 µM | CNc1nn2c(C)cc(CN(C)C)nc2c1S(=O)(=O)c1ccccc1 [1.2.23(10).HCl]
45 | 0.067 µM | CNc1nn2c(C)cc(CN(C)C)nc2c1S(=O)(=O)c1cccc(Cl)c1 [1.2.23(11).HCl]
46 | 0.07 µM | CNc1nn2c(C)cc(CN(C)C)nc2c1S(=O)(=O)c1cccc(F)c1 [1.2.23(12).HCl]
47 | 0.015 µM | CNc1nn2c(CN)cc(C)nc2c1S(=O)(=O)c1ccccc1 [1.2.24(1).HCl]
48 | 0.022 µM | CNc1nn2c(CN)cc(C)nc2c1S(=O)(=O)c1ccc(F)cc1 [1.2.24(2).HCl]
49 | 0.03 µM | CNc1nn2c(CCN)cc(C)nc2c1S(=O)(=O)c1ccccc1 [1.2.24(3).HCl]
50 | 0.021 µM | CNc1nn2c(CN(C)C)cc(C)nc2c1S(=O)(=O)c1ccccc1 [1.2.24(10).HCl]
51 | 0.033 µM | CNc1nn2c(CN(C)C)cc(C)nc2c1S(=O)(=O)c1cccc(Cl)c1 [1.2.24(11).HCl]
52 | 0.035 µM | CNc1nn2c(CN(C)C)cc(C)nc2c1S(=O)(=O)c1cccc(F)c1 [1.2.24(12).HCl]
53 | 0.899 µM | CNc1nn2c(CCN(C)C)cc(C)nc2c1S(=O)(=O)c1ccccc1 [1.2.24(14).HCl]

biological target: T1, 5-HT6 receptor; experiment: competitive radioligand binding ([3H] Lysergic acid diethylamide) to serotonin 5-HT6 receptors, HeLa cell membranes; conditions: read-out: IC50, competitive assay of serotonin 5-HT6 receptor inhibition; displacement of 1.5 nM [3H] Lysergic acid diethylamide, 120 min at 37° C.
Procedure: Determination of activity of the compounds of the general formula 1 in the setting of competitive binding to serotonin 5-HT6 receptors.
Screening of the disclosed compounds for their potential ability to interact with serotonin 5-HT6 receptors was carried out by method of radioligand binding. For this purpose membrane species were prepared from expressing recombinant human 5-HT6 receptors HeLa cells by means of their homogenization in glass homogenizer with subsequent separation of plasmatic membranes from cell nucli, mitochondria's and cell wreckages by differential centrifugation. Determination of tested compounds binding to 5-HT6 receptors was carried out according to the method described in [Monsma F J Jr, Shen Y, Ward R P, Hamblin M W and Sibley D R, Cloning and expression of a novel serotonin receptor with high affinity for tricyclic psychotropic drugs. […] After incubation the samples were filtered in vacuo on glass-microfiber filters G/F (Millipor, USA), filters were washed three times with cold solution of the medium and radioactivity was measured by scintillation counter MicroBeta 340 (PerkinElmer, USA). Nonspecific binding which made up 30% of overall binding was determined by incubation of membrane preparations with radioligand in the presence of 5 μM Serotonin (5-HT). Methiothepin was used as positive control. Binding of the tested compounds to the receptor was determined by their ability to displace the radioligand and expressed in percent of displacement. The percent of displacement was calculated according to the following equation:
[formula] wherein: TA—was overall radioactivity in the presence of radioligand only, CA—was radioactivity in the presence of radioligand and tested compound and NA—was radioactivity in the presence of radioligand and Serotonin (5 μM).

Row | IC50 | Compound
54 | < 0.01 µM | CSc1nn2c(C)c(Cl)c(C)nc2c1S(=O)(=O)c1ccccc1 [1.1(4)]
55 | 0.05 µM | CSc1nn2c(C)c(Oc3ccccc3)c(C)nc2c1S(=O)(=O)c1ccccc1 [1.1(6)]
56 | 0.05 µM | CSc1nn2ccc(C)nc2c1S(=O)(=O)c1ccc(F)cc1 [1.1.2(2), 5-methyl-2-methylsulfanyl-3-(4-fluorophenylsulfonyl)-pyrazolo[1,5-a]pyrimidine]
57 | 0.04 µM | CSc1nn2c(C)ccnc2c1S(=O)(=O)c1ccccc1 [1.1.3(1), 7-methyl-2-methylsulfanyl-3-phenylsulfonyl-pyrazolo[1,5-a]pyrimidine]
58 | < 0.01 µM | COc1cc(-c2cccnc2)nc2c(S(=O)(=O)c3ccccc3)c(SC)nn12 [1.1.8(3), 2-methylsulfanyl-7-methoxy-5-(pyridin-3-yl)-3-phenylsulfonyl-pyrazolo[1,5-a]pyrimidine]
59 | 0.018 µM | CNc1nn2cccnc2c1S(=O)(=O)c1ccc(F)cc1 [1.2.1(2), 2-methylamino-3-(4-fluorophenylsulfonyl)-pyrazolo[1,5-a]pyrimidine]
60 | 0.00501 µM | CNc1nn2cccnc2c1S(=O)(=O)c1cccc(Cl)c1 [1.2.1(4), 2-methylamino-3-(3-chlorophenylsulfonyl)-pyrazolo[1,5-a]pyrimidine]
61 | 0.00074 µM | CNc1nn2c(C)ccnc2c1S(=O)(=O)c1ccccc1 [1.2.3(1), 7-methyl-2-methylamino-3-phenylsulfonyl-pyrazolo[1,5-a]pyrimidine]
62 | 0.00034 µM | CNc1nn2c(COC)cc(C)nc2c1S(=O)(=O)c1ccccc1 [1.2.4(1), 5-methyl-2-methylamino-7-(methoxymethyl)-3-phenylsulfonyl-pyrazolo[1,5-a]pyrimidine]
63 | 0.031 µM | CNc1nn2c(N3CCOCC3)cc(C)nc2c1S(=O)(=O)c1ccccc1 [1.2.12(5), 5-methyl-2-methylamino-7-(morfolin-4-yl)-3-phenylsulfonyl-pyrazolo[1,5-a]pyrimidine]
64 | 0.00128 µM | CCOC(=O)Cc1c(C)nc2c(S(=O)(=O)c3ccccc3)c(NC(C)C)nn2c1C [1.2.13(3)]
65 | 0.0153 µM | CNc1nn2c(C)c(CC(=O)N(C)C)c(C)nc2c1S(=O)(=O)c1ccccc1 [1.2.19(1).CH3CO2H]
